One block for each compound: values may come before it.
How the values were obtained:
[1] = biological target: human Bub1 (Homo sapiens (Human), UniProt O43683); experiment: Bub1 kinase assay (TR-FRET); type: biochemical; conditions: 10 μM ATP; read-out: Bub1 avg (IC50 [mol/l])
Procedure, shortened: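 His6-tagged human Bub1 catalytic domain (aa 704-1085, insect-cell expressed, ~200 ng/ml) preincubated with compound 15 min, then reacted 60 min at 22 °C with 10 μM ATP and 1 μM biotinylated peptide (final) in pH 7.5 Tris buffer. Phosphopeptide detected by TR-FRET 665/620 ratio, normalised to no-inhibitor and no-enzyme controls.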

[2] = biological target: CDK2/CycE (Homo sapiens (Human), UniProt P24941); experiment: CDK2/CycE kinase assay (TR-FRET); type: biochemical; conditions: 10 μM ATP; read-out: CDK2 avg (IC50 [mol/l])
Procedure, shortened: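 GST-tagged human CDK2 and GST-CycE from Sf9 cells (~130 ng/ml) were preincubated with compound for 15 min at 22 °C. Reaction with 10 μM ATP and 0.75 μM biotinylated peptide (final) ran 25 min at 22 °C, pH 8.0. Phospho-peptide was read by TR-FRET (665/620 nm ratio, anti-pRB antibody, Eu donor) and normalised to no-enzyme and no-inhibitor controls.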

Chain of human Bub1 (O43683 704-1085): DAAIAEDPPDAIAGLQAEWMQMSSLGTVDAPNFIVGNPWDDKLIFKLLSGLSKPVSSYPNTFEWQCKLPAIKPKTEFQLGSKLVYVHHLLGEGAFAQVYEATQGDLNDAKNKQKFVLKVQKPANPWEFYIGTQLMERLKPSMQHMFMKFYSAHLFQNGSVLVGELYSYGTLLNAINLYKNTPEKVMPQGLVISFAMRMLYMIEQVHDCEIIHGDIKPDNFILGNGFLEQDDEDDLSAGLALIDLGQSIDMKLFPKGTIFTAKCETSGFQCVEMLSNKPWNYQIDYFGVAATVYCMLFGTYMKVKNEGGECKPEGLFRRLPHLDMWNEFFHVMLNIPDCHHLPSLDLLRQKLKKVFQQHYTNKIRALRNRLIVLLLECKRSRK

Structure (SMILES): Cc1nsc(Nc2cncc(Cl)n2)c1C(=O)Nc1ccc(F)c(F)c1 [Example 71, 5-[(6-Chloropyrazin-2-yl)amino]-N-(3,4-difluorophenyl)-3-methyl-1,2-thiazole-4-carboxamide]
- IC50 [1]: > 20 µM
- IC50 [2]: 8.6 µM

Structure (SMILES): CNC(=O)c1cncc(Nc2snc(C)c2C(=O)Nc2ccc(F)c(F)c2)n1 [Example 70, 6-({4-[(3,4-Difluorophenyl)carbamoyl]-3-methyl-1,2-thiazol-5-yl}amino)-N-methylpyrazine-2-carboxamide]
- IC50 [1]: 1.7 µM
- IC50 [2]: > 20 µM

Structure (SMILES): Cc1nsc(Nc2cncc(-c3ncco3)n2)c1C(=O)Nc1ccc(Cl)c(F)c1 [Example 63, N-(4-Chloro-3-fluorophenyl)-3-methyl-5-{[6-(1,3-oxazol-2-yl)pyrazin-2-yl]amino}-1,2-thiazole-4-carboxamide]
- IC50 [1]: > 20 µM
- IC50 [2]: > 20 µM

Structure (SMILES): COC(=O)c1cnc(Nc2snc(C)c2C(=O)Nc2ccc(F)c(F)c2)cn1 [Example 59, Methyl 5-({4-[(3,4-difluorophenyl)carbamoyl]-3-methyl-1,2-thiazol-5-yl}amino)-pyrazine-2-carboxylate]
- IC50 [1]: > 20 µM
- IC50 [2]: > 20 µM

Structure (SMILES): CCc1ccccc1NC(=O)c1c(C)nsc1Nc1nccc(-c2ccccc2)n1 [Example 5, N-(2-Ethylphenyl)-3-methyl-5-[(4-phenylpyrimidin-2-yl)amino]-1,2-thiazole-4-carboxamide]
- IC50 [1]: > 20 µM
- IC50 [2]: > 20 µM

Structure (SMILES): Cc1nsc(Nc2cncc(-n3cccn3)n2)c1C(=O)Nc1ccc(Cl)c(F)c1 [Example 67, N-(4-Chloro-3-fluorophenyl)-3-methyl-5-{[6-(1H-pyrazol-1-yl)pyrazin-2-yl]amino}-1,2-thiazole-4-carboxamide]
- IC50 [1]: > 20 µM

Structure (SMILES): Cc1nsc(Nc2cncc(-n3cccn3)n2)c1C(=O)Nc1ccc(F)c(F)c1 [Example 64, N-(3,4-Difluorophenyl)-3-methyl-5-{[6-(1H-pyrazol-1-yl)pyrazin-2-yl]amino}-1,2-thiazole-4-carboxamide]
- IC50 [2]: 8.4 µM

More lines, now with the values ahead:

- IC50 [1]: > 20 µM
- IC50 [2]: > 20 µM
Structure (SMILES): Cc1nsc(Nc2cnc(C(F)(F)F)cn2)c1C(=O)Nc1ccc(F)c(F)c1 [Example 81, N-(3,4-Difluorophenyl)-3-methyl-5-{[5-(trifluoromethyl)pyrazin-2-yl]amino}-1,2-thiazole-4-carboxamide]

- IC50 [1]: > 20 µM
- IC50 [2]: > 20 µM
Structure (SMILES): CCOC(=O)c1cnc(Nc2snc(C)c2C(=O)Nc2ccccc2CC)s1 [Example 92, Ethyl 2-({4-[(2-ethylphenyl)-carbamoyl]-3-methyl-1,2-thiazol-5-yl}amino)-1,3-thiazole-5-carboxylate]

- IC50 [1]: > 20 µM
- IC50 [2]: > 20 µM
Structure (SMILES): CCc1ccccc1NC(=O)c1c(C)nsc1Nc1nc(C(=O)OC)co1 [Example 91, Methyl 2-({4-[(2-ethylphenyl)carbamoyl]-3-methyl-1,2-thiazol-5-yl}amino)-1,3-oxazole-4-carboxylate]

- IC50 [1]: > 20 µM
- IC50 [2]: > 20 µM
Structure (SMILES): CCc1cnc(Nc2snc(C)c2C(=O)Nc2ccc(F)c(F)c2)cn1 [Example 79, N-(3,4-Difluorophenyl)-5-[(5-ethylpyrazin-2-yl)amino]-3-methyl-1,2-thiazole-4-carboxamide]

- IC50 [1]: > 20 µM
- IC50 [2]: > 20 µM
Structure (SMILES): COc1ccc(NC(=O)c2c(C)nsc2Nc2ncc(C(=O)N3CCOCC3)s2)cc1F [Example 93, N-(3-Fluoro-4-methoxyphenyl)-3-methyl-5-{[5-(morpholin-4-ylcarbonyl)-1,3-thiazol-2-yl]amino}-1,2-thiazole-4-carboxamide]

- IC50 [1]: > 20 µM
- IC50 [2]: > 20 µM
Structure (SMILES): COc1cncc(Nc2snc(C)c2C(=O)Nc2ccc(F)c(F)c2)n1 [Example 72, N-(3,4-Difluorophenyl)-5-[(6-methoxypyrazin-2-yl)amino]-3-methyl-1,2-thiazole-4-carboxamide]

- IC50 [1]: 15 µM
Structure (SMILES): Cc1nsc(Nc2cncc(C(F)(F)F)n2)c1C(=O)Nc1ccc(F)c(F)c1 [Example 82, N-(3,4-Difluorophenyl)-3-methyl-5-{[6-(trifluoromethyl)pyrazin-2-yl]amino}-1,2-thiazole-4-carboxamide]

— patent US9682995B2, “Amino-substituted isothiazoles” (BAYER PHARMA AKTIENGESELLSCHAFT, priority 2013, dated 2017)
